According to US20120195860A1, “LATENT NEURAL STEM CELL POPULATION” (priority 2007, published 2012):
Where a name gives a salt, the structure may show the parent alone.

Columns and labels:
[1] = test system: DCX+ve / DCX-ve and PNA positive adult hippocampal cells; assay: neurosphere assay on sorted hippocampal cells (DCX-GFP FACS, PNA binding); type: cell-based, mouse
Protocol: E14, P2 and adult brains were collected as described above and processed either whole or dissected into specific regions (olfactory bulb, cortex, cerebellum and subventricular zone (SVZ)). GFP+ve cells were separated by fluorescence-activated cell sorting (FACS) using a FACS Vantage cell sorter (BD Biosciences). A wild-type littermate control was used to determine background fluorescence levels. For primary neurosphere cultures the cells were plated at a density of 500 cells/well in 96-well plates (Falcon/BD Biosciences, San Jose, Calif.) with 0.2 ml complete medium per well. […] The primary neurospheres were then counted and collected for passaging or differentiation. Results of the neurosphere counts were expressed as mean + or − standard error and statistical analysis was performed using a standard t-Test (two sample assuming equal variance).
Mice in which the green fluorescent protein (GFP) is driven by the Doublecortin (DCX) promoter (DCX-GFP) were used for the separation of DCX^+ve cells. […] DCX-GFP^+ve and DCX-GFP^−ve cells were separated by fluorescence-activated cell sorting (FACS) using a FACS Vantage cell sorter (BD Biosciences) as described (see above). A wild-type littermate control was used to determine background fluorescence levels. Potassium was added to DCX^+ve and DCX^−ve cells at a final concentration of 15 mM and the number of neurospheres counted after 10 days.

[2] = test system: hippocampal precursors of mice that underwent SE; assay: hippocampal neurosphere assay after status epilepticus in vivo; parameters: species or system mouse
Protocol: Seizures were induced in 6-8 week old C57BL/6 male mice by the administration of pilocarpine, a muscarinic cholinergic agonist. Thirty minutes prior to pilocarpine administration, the mice were injected with 2.5 mg/kg of the cholinergic antagonist scopolamine methyl nitrate (Sigma-Aldrich) to reduce peripheral cholinergic effects. They then received intraperitoneal injections of 350 mg/kg pilocarpine hydrochloride (Sigma-Aldrich). […] Seizures were stopped 2 hours after status epilepticus onset, with an intraperitoneal injection of 5 mg/kg diazepam (Patulin, Parnell Laboratories Sydney, Australia).
In addition we observed that extended depolarization, between 24 and 48 hours exposure to high level of KCl is required for the stimulation to occur in WT hippocampus confirming the need for prolonged depolarization.

[3] = test system: cortical cells; assay: primary neurosphere culture, cortex; type: cell-based, mouse; settings: depolarization (potassium)
Protocol: Adult (6-8 week old) male C57/B16 mice were killed by cervical dislocation, their brains immediately removed and the hippocampus, SVZ, olfactory bulb or cortex dissected. The tissue was enzymatically digested with 0.1% trypsin-EDTA (Gibco/Invitrogen, Eugene, Oreg.) for 7 minutes at 37° C., followed by a wash with 0.014% w/v trypsin inhibitor (type I-S from soybean; Sigma-Aldrich. Australia, Sydney, Australia) dissolved in Hepes-buffered minimum essential medium (HEM), which consisted of minimum essential medium (Gibco/Invitrogen) supplemented with 16 mM HEPES (Sigma-Aldrich Australia) and 100 units/ml penicillin/streptomycin (Gibco/Invitrogene). The tissue was centrifuged at 100 rcf for 7 minutes, following which the pellet was resuspended in 1 ml neurosphere growth medium, mechanically triturated until smooth, then filtered through a 40 μm cell sieve (Falcon/BD Biosciences Australia, North Ryde, Australia). […]
The neurosphere growth medium already contained 4.18 mM KCl. […] The primary neurospheres were then counted and collected for passaging or differentiation. Results of the neurosphere counts were expressed as mean ± standard error and statistical analysis was performed using a standard t-Test (two sample assuming equal variance).

[4] = test system: adult mouse hippocampal cells; assay: primary neurosphere culture, hippocampus; type: cell-based
Protocol: Adult (6-8 week old) male C57/B16 mice were killed by cervical dislocation, their brains immediately removed and the hippocampus, SVZ, olfactory bulb or cortex dissected. The tissue was enzymatically digested with 0.1% trypsin-EDTA (Gibco/Invitrogen, Eugene, Oreg.) for 7 minutes at 37° C., followed by a wash with 0.014% w/v trypsin inhibitor (type I-S from soybean; Sigma-Aldrich. Australia, Sydney, Australia) dissolved in Hepes-buffered minimum essential medium (HEM), which consisted of minimum essential medium (Gibco/Invitrogen) supplemented with 16 mM HEPES (Sigma-Aldrich Australia) and 100 units/ml penicillin/streptomycin (Gibco/Invitrogene). The tissue was centrifuged at 100 rcf for 7 minutes, following which the pellet was resuspended in 1 ml neurosphere growth medium, mechanically triturated until smooth, then filtered through a 40 μm cell sieve (Falcon/BD Biosciences Australia, North Ryde, Australia). The neurosphere growth medium consisted of mouse NeuroCult™ NSC Basal Medium plus mouse NeuroCult™ NSC Proliferation Supplements (StemCell Technologies, Vancouver, Canada) with 2% bovine serum albumin (Roche, Basel, Switzerland) and 2 μg/ml heparin (Sigma-Aldrich Australia). […]

[5] = test system: cells derived from the spinal cord; assay: activation of cells derived from the spinal cord; type: cell-based; settings: KCl
[6] = test system: 33 week HD hippocampal precursors; assay: hippocampal neurosphere assay, Huntington's disease R6/1 mice; type: cell-based, mouse; settings: 33 week old HD mice
From the text: R6/1 (B6CBA-TgN(HDexon1)61 Gpb/Pan) mice were originally obtained from Jackson Laboratory (Bar Harbor, Me.) and maintained by backcrossing to CBB6F1 females. For the neurosphere assays we used HD exon 1 carriers (R6/1) and aged matched wild-type littermates. Huntington's Disease is a neurodegenerative disorder that affects the striatum and cortex as well as hippocampus (Murphy et al., 2000). Previous studies have shown that older symptomatic R6/1 transgenic mice have a significant decrease in cell proliferation in the hippocampus compared to wild-type mice whereas younger pre-symptomatic R6/1 and WT mice had similar levels of proliferation (Lazic et al., 2004). […] We observed a decrease in the total number of hippocampal neuroapheres with age in WT mice that was not observed in HD mice.

| SMILES | response of DCX-ve vs DCX+ve population to high levels of potassium ([1]; 15 mM potassium, 10 days) | activation of PNA positive population ([1]; adult hippocampal cells separated by peanut agglutinin binding) | further stimulation of precursors from SE mice by depolarizing potassium ([2]; SE at least 2 hours, sacrificed after 48 hours, potassium added in vitro) | increase in neurosphere number in cortex [3] | increase in number of neurospheres, stimulated compared to control ([4]; 18 month old hippocampus, depolarizing conditions) | formation of large neurospheres ([4]; potassium-induced depolarization, hippocampus) | activation of spinal cord derived cells [5] | further increase of HD hippocampal precursors by potassium depolarization in vitro [6] | activation of latent hippocampal population by induced seizures ([2]; injections of pilocarpine hydrochloride, FIG. 8A) |
| --- | --- | --- | --- | --- | --- | --- | --- | --- | --- |
| [Cl-].[K+] [KCl, potassium chloride] | it is this population, and not the DCX^+ve population, that responds | activated | no further stimulatory effect | over 3 fold | over 12 fold | stimulates the formation of increased numbers of large neurospheres | activation | could not be further increased |  |
| CC[C@@H]1C(=O)OC[C@@H]1Cc1cncn1C [pilocarpine hydrochloride] |  |  |  |  |  |  |  |  | activation |
